For the test the following is noted: patient.

On to `CC(C)c1c(C(=O)Nc2ccccc2)c(-c2ccccc2)c(-c2ccc(F)cc2)n1CC[C@@H](O)C[C@@H](O)CC(=O)[O-].CC(C)c1c(C(=O)Nc2ccccc2)c(-c2ccccc2)c(-c2ccc(F)cc2)n1CC[C@@H](O)C[C@@H](O)CC(=O)[O-].[Ca+2]` [amorphous atorvastatin calcium], for which, where the note is “20 mg once daily with 10 mg amlodipine”, the “therapeutic effectiveness after change from crystalline atorvastatin calcium” value is on record as “without change in the therapeutic effectiveness”.
`CC(C)c1c(C(=O)Nc2ccccc2)c(-c2ccccc2)c(-c2ccc(F)cc2)n1CC[C@@H](O)C[C@@H](O)CC(=O)[O-].CC(C)c1c(C(=O)Nc2ccccc2)c(-c2ccccc2)c(-c2ccc(F)cc2)n1CC[C@@H](O)C[C@@H](O)CC(=O)[O-].[Ca+2]` [crystalline atorvastatin calcium]: the therapeutic effect result (20 mg once a day, co-administered 10 mg amlodipine once daily) was “good therapeutic effect”.

The record behind these values is patent publication US20080249141A1, “Co-therapy with and combinations of statins and 1,4-dihydropyridine-3,5-dicarboxydiesters” (priority 2007, published 2008).
